Data reported in patent US8580579B2, “Hydrophilic and lipophilic rhodamines for labelling and imaging” (Max-Planck-Gesellschaft zur Foerderung der Wissenschaften …, priority 2009, dated 2013).
Entries after “also recorded” stand apart in the source; their conditions may differ. Read-outs that look alike come from different tables or passages of the source.

Tests used:
[1] = cited from earlier work
[2] = cited from earlier work; for Φfl: no solvent given in the cell
[3] = Solubility and polarity of the dyes
[4] = UV-visible absorption and fluorescence spectra of the dyes of the invention; type: physicochemical; conditions: for ε · 10^−5 / λmax (abs.) / λmax (fl.): solvent MeOH
Procedure: UV-visible absorption spectra were recorded on a Varian Cary 4000 UV-Vis spectrophotometer, and fluorescence spectra on a Varian Cary Eclipse fluorescence spectrophotometer. Reactions were carried out upon magnetic stirring in Schlenk flasks equipped with septa or reflux condensers with bubble-counters under argon using a standard manifold with vacuum and argon lines. All NMR spectra are referenced to tetramethylsilane as an internal standard (δ=0 ppm) using the signals of the residual protons of CHCl3 (7.26 ppm) in CDCl3, CHD2OD (3.31 ppm) in CD3OD, HOD (4.75 ppm) in D2O, [D5]acetone (2.04 ppm) in [D6]acetone or [D5]DMSO (2.50 ppm) in [D6]DMSO. Multiplicities of signals are described as follows: s=singlet, br. s=broad singlet, d=doublet, t=triplet, q=quartet, quint=quintet, m=multiplet, mc=centrosymmetrical multiplet. Coupling constants (J) are given in Hz. Multiplicities in the ^13C NMR spectra were determined by APT (Attached Proton Test) measurements. Low resolution mass spectra (electro spray ionization, ESI) were obtained with LCQ and ESI-TOF mass-spectrometers (MICROTOF (focus), Fa. Bruker). The MICROTOF spectrometer equipped with ESI ion source Apollo and direct injector with LC autosampler Agilent RR 1200 was used for obtaining high resolution mass spectra (ESI-HRMS). ESI-HRMS were obtained also on APEX IV spectrometer (Bruker). HPLC system (Knauer): Smartline pump 1000 (2×), UV detector 2500, column thermostat 4000 (25° C.), mixing chamber, injection valve with 20 and 100 μL loop for the analytical and preparative columns, respectively; 6-port-3-channel switching valve; analytical column: Eurospher-100 C18, 5 μm, 250×4 mm, 1.1 mL/min; preparative column: Eurospher-100-5 C18, 5 μm, 250×8 mm, 3.7 mL/min; solvent A: water+0.1% v/v trifluoroacetic acid (TFA); solvent B: MeCN+0.1% v/v TFA; detection at 636 nm (if not stated otherwise). Normal phase analytical TLC was performed on MERCK ready-to-use plates with silica gel 60 (F254) and reversed phase TLC—on RP-18W/UV254 precoated TLC plates (Macherey-Nagel). Preparative TLC was performed on MERCK HPTLC silica gel 60 plates (10×10 cm, layer thickness 0.2 mm). Column chromatography: MERCK silica gel, grade 60, 0.04-0.063 mm or Polygoprep 60-50 C18 (Macherey-Nagel).

[5] = Fluorescence quantum yield, Atto 633 as reference; type: physicochemical; conditions: Atto 633 as reference (Φfl = 64% in aqueous buffer)
Text: Moreover, intersystem crossing rates (kISC) and rates of the T1→S0 transitions were also found to be the same for both deuterated and undeuterated substances (see ref. to Table 2).

[6] = Chemical and storage stability of dyes and reactive derivatives; type: physicochemical; conditions: for chemical stability of the active ester: isolation and storage; for stability in a solid state: under Ar
Text: Usually, amino- or thiol reactive derivatives of the fluorescent dyes are used for labelling of proteins. For conjugation with amines, the free carboxy group needs to be activated by the formation of N-hydroxy(sulfo)succinimidyl esters, phenyl esters with electron-acceptor groups in the benzene ring or similar compounds with good leaving groups. […] Ester 8 partly decomposed in the course of chromatographic isolation using silica gel. Therefore, the reaction mixture containing the active ester 8 was used for labelling the lipids in their non-polar domain and other coupling procedures. […] They were isolated by reversed-phase HPLC using the gradient elution with aqueous acetonitrile with 0.1% (v/v) of TFA, lyophilized and stored at −20° C. under argon. Under these conditions, the content of the corresponding acids 6/6D in the very light dark blue voluminous solids increased from 3-5% up to 7-10% in 2 months. The higher stability of the NHS esters 9 and 10 may be explained by the absence of any nucleophilic counter ion. The maleimide derivative 11 has been prepared straight from compounds 9 and 10 by combining them in DMF with Et3N as base. It was also isolated by HPLC.

[7] = as above; type: physicochemical

Compound: O=C(O)CCCCCNC(=O)COc1ccc(/C=C/C2=[N+]3C(=Cc4ccc(-c5cccs5)n4[B-]3(F)F)C=C2)cc1 [BODIPY ® 630/650]
- Solubility (solvents) [1]: DMSO, MeCN
- τfl ([2]; EtOH): 4.4 (EtOH)^1 ns
- τfl ([2]; H2O): 3.9 (H2O) ns
- Φfl [2]: “good”
- ε · 10^−5 ([2]; solvent MeOH): 1.01 M^−1 cm^−1
- λmax (abs.) ([2]; solvent MeOH): 625 nm
- λmax (fl.) ([2]; solvent MeOH): 640 nm

Compound: CC1=CC(C)(C)N2CCCc3c4c(cc1c32)C(c1c(F)c(F)c(F)c(F)c1C(=O)N(C)CCC(=O)O)=c1cc2c3c(c1O4)CCC[N+]=3C(C)(C)C=C2C [Compound 5-H]
- Solubility (solvents) [3]: DMF, THF, CHCl3;
- polarity [3]: non-polar
- solubility in organic solvents [3]: moderately soluble in polar organic solvents; also recorded: very good
- solubility in water or aqueous buffers [3]: very slightly soluble in water
- Stokes shift ([4]; dyes of the invention): 23 nm
- ε · 10^−5 [4]: 0.73 M^−1 cm^−1
- λmax (abs.) [4]: 638 nm
- λmax (fl.) [4]: 661.5 nm
- Φfl in water [5]: 53%

Compound: COC(=O)CCN(C)C(=O)c1c(F)c(F)c(F)c(F)c1C1=c2cc3c4c(c2Oc2c1cc1c5c2CCCN5C(C)(C)C=C1C)CCC[N+]=4C(C)(C)C=C3C [Compound 5-Me]
- Solubility (solvents) [3]: DMF, THF, CHCl3;
- polarity [3]: non-polar
- solubility in organic solvents [3]: soluble in most organic solvents (except alkanes)
- solubility in water or aqueous buffers [3]: insoluble in water
- ε · 10^−5 [4]: 0.66 M^−1 cm^−1
- λmax (abs.) [4]: 638 nm
- λmax (fl.) [4]: 661.5 nm
- Φfl in water [5]: 62%

Compound: CC1=CC(C)(C)N2CCCc3c4c(cc1c32)C(c1c(F)c(F)c(F)c(F)c1C(=O)N(C)CCC(=O)OC(C)(C)C)=c1cc2c3c(c1O4)CCC[N+]=3C(C)(C)C=C2C [Compound 5-tBu]
- Solubility (solvents) [3]: DMF, THF, CHCl3;
- polarity [3]: non-polar
- solubility in organic solvents [3]: soluble in most organic solvents (except alkanes)
- solubility in water or aqueous buffers [3]: insoluble in water
- ε · 10^−5 [4]: 0.92 M^−1 cm^−1
- λmax (abs.) [4]: 638 nm
- λmax (fl.) [4]: 661 nm
- Φfl in water [5]: 61%

Compound: COC(=O)c1c(F)c(F)c(F)c(F)c1C1=c2cc3c4c(c2Oc2c1cc1c5c2CCCN5C(C)(C)C=C1C)CCC[N+]=4C(C)(C)C=C3 [Compound 7]
- Solubility (solvents) [3]: CHCl3, THF
- polarity [3]: non-polar
- λmax (abs.) [4]: 632 nm
- λmax (fl.) [4]: 655.5 nm

Compound: CC1=CC(C)(C)N2CCCc3c4c(cc1c32)C(c1c(F)c(F)c(F)c(F)c1C(=O)N(C)CCC(=O)Oc1c(F)c(F)cc(F)c1F)=c1cc2c3c(c1O4)CCC[N+]=3C(C)(C)C=C2C [Compound 8]
- chemical stability of the active ester [6]: Low chemical stability

Compound: CN(CCC(=O)ON1C(=O)CCC1=O)C(=O)c1c(F)c(F)c(F)c(F)c1C1=c2cc3c4c(c2Oc2c1cc1c5c2CCCN5C(C)(C)C=C1CS(=O)(=O)O)CCC[N+]=4C(C)(C)C=C3CS(=O)(=O)[O-] [Compound 9]
- solubility in water or aqueous buffers [3]: soluble in water
- chemical stability of the active ester [6]: remarkably stable
- stability in a solid state [6]: stable
- stability in aqueous solutions ([7]; at RT): decomposes

Compound: CN(CCC(=O)NCCN1C(=O)C=CC1=O)C(=O)c1c(F)c(F)c(F)c(F)c1C1=c2cc3c4c(c2Oc2c1cc1c5c2CCCN5C(C)(C)C=C1CS(=O)(=O)O)CCC[N+]=4C(C)(C)C=C3CS(=O)(=O)O [Compound 11]
- solubility in water or aqueous buffers [3]: soluble in water
- stability in a solid state [6]: stable
- stability in methanol or methanol-containing solutions [7]: decomposes; also recorded: sensitive to methanol even at room temperature

Compound: CCN(CC)c1ccc2c(C=CC=C3N(CCCCCC(=O)O)c4ccc(S(=O)(=O)[O-])cc4C3(C)C)cc(C(C)(C)C)[o+]c2c1 [DY-630]
- Solubility (solvents) [1]: MeOH, EtOH,; also recorded: DMF, DMSO
- τfl ([2]; H2O): 0.21 ns
- Φfl [2]: Varies^6
- ε · 10^−5 ([2]; solvent EtOH): 2.0 M^−1 cm^−1
- λmax (abs.) ([2]; solvent EtOH): 636 nm
- λmax (fl.) ([2]; solvent EtOH): 657 nm
- λmax (abs.) ([2]; solvent H2O): 627^1 nm
- λmax (fl.) ([2]; solvent H2O): 651^1 nm

Compound: CC[N+](CC)=c1ccc2c(/C=C/C=C3/N(CCCS(=O)(=O)[O-])c4ccc(S(=O)(=O)[O-])cc4C3(C)CCCC(=O)O)cc(C(C)(C)C)oc-2c1.[Na+] (centres unmarked) [DY-631]
- Solubility (solvents) [1]: H2O, MeOH,; also recorded: DMF, DMSO
- ε · 10^−5 ([2]; solvent EtOH): 2.0 M^−1 cm^−1

Compound: CC[N+](CCCS(=O)(=O)[O-])=c1ccc2c(C=CC=C3N(CCCCCC(=O)O)c4ccc(S(=O)(=O)[O-])cc4C3(C)C)cc(C(C)(C)C)oc-2c1.[Na+] [DY-633]
- Solubility (solvents) [1]: H2O, MeOH,; also recorded: DMF, DMSO
- ε · 10^−5 ([2]; solvent EtOH): 2.0 M^−1 cm^−1

Compound: CC(C)(C)c1cc(C=CC=C2N(CCCC(=O)O)c3ccc(S(=O)(=O)[O-])cc3C2(C)CCCS(=O)(=O)[O-])c2ccc(=[N+](CCCS(=O)(=O)[O-])CCCS(=O)(=O)[O-])cc-2o1.[Na+].[Na+].[Na+] (centres unmarked) [DY-634]
- Solubility (solvents) [1]: H2O, MeOH,; also recorded: DMF, DMSO
- ε · 10^−5 ([2]; solvent EtOH): 2.0 M^−1 cm^−1

Compound: CC(C)(C)c1cc(C=CC=C2N(CCCCCC(=O)O)c3ccc(S(=O)(=O)[O-])cc3C2(C)C)c2cc3c4c(c2[o+]1)CCCN4CCC3 [DY-635]
- Solubility (solvents) [1]: MeOH, EtOH,; also recorded: DMF, DMSO
- τfl ([2]; H2O): 0.48 ns
- ε · 10^−5 ([2]; solvent EtOH): 2.0 M^−1 cm^−1
- λmax (abs.) ([2]; solvent EtOH): 647 nm
- λmax (fl.) ([2]; solvent EtOH): 671 nm
- λmax (abs.) ([2]; solvent H2O): 635^1 nm
- λmax (fl.) ([2]; solvent H2O): 669^1 nm

Compound: CC(C)(C)C1=CC(=CC=CC2=[N+](CCCS(=O)(=O)[O-])c3ccc(S(=O)(=O)[O-])cc3C2(C)CCCC(=O)O)c2cc3c4c(c2O1)CCCN4CCC3.[Na+] (centres unmarked) [DY-636]
- Solubility (solvents) [1]: H2O, EtOH,; also recorded: DMF, DMSO
- ε · 10^−5 ([2]; solvent EtOH): 2.0 M^−1 cm^−1
- λmax (abs.) ([2]; solvent EtOH): 645 nm
- λmax (fl.) ([2]; solvent EtOH): 671 nm

Compound: CCN1c2cc3[o+]c(C(C)(C)C)cc(C=CC=C4N(CCCCCC(=O)O)c5ccc(S(=O)(=O)[O-])cc5C4(C)C)c3cc2C(C)=CC1(C)C [DY-650]
- Solubility (solvents) [1]: MeOH, EtOH,; also recorded: DMF, DMSO
- τfl ([2]; H2O): 0.64 (H2O)^1 ns
- ε · 10^−5 ([2]; solvent EtOH): 2.2 M^−1 cm^−1
- λmax (abs.) ([2]; solvent EtOH): 653 nm
- λmax (fl.) ([2]; solvent EtOH): 674 nm
- λmax (abs.) ([2]; solvent H2O): 646^1 nm
- λmax (fl.) ([2]; solvent H2O): 670 nm

Compound: CCN(CCCS(=O)(=O)[O-])c1ccc2nc3ccc(=[N+](C)CCC(=O)O)cc-3oc2c1 [Evoblue 30]
- Solubility (solvents) [1]: H2O, MeOH,; also recorded: DMF, DMSO
- τfl ([2]; H2O): 0.64 (H2O)^1 ns
- ε · 10^−5 ([2]; solvent EtOH): 1.0 M^−1 cm^−1
- λmax (abs.) ([2]; solvent EtOH): 647 nm
- λmax (fl.) ([2]; solvent EtOH): 664 nm
- λmax (abs.) ([2]; solvent H2O): 650^1 nm
- λmax (fl.) ([2]; solvent H2O): 667^1 nm
